Data from patent US20160015786A1, “MOBILIZING AGENTS AND USES THEREFOR” (MATER MEDICAL RESEARCH INSTITUTE LIMITED, priority 2013, published 2016).

How the values were obtained:
[1] = Spleen weight after mobilization treatment; type: in vivo, C57BL/6 mice
Experimental: Additional HIF-α potentiating agents in the form of PHD inhibitors were tested for their ability to enhance mobilization induced by G-CSF. Compound A, Compound B or Compound C, were tested in male, 7 weeks-old C57BL/6 mice. Mice were injected twice daily sub-cutaneously with rhuG-CSF at a dose of 125 μg/kg per injection for four days. […]
(§1) At the end of treatment, blood was harvested by cardiac puncture, mice were sacrificed by cervical dislocation and spleens harvested. Femurs were removed, cleaned and the bone marrow was flushed with 1 mL PBS+10% newborn calf serum (NCS).

white blood cells = assay: White blood cell number per mL of blood after mobilization treatment; type: in vivo, C57BL/6 mice
Experimental: (§2) Additional HIF-α potentiating agents in the form of PHD inhibitors were tested for their ability to enhance mobilization induced by G-CSF. Compound A, Compound B or Compound C, were tested in male, 7 weeks-old C57BL/6 mice. Mice were injected twice daily sub-cutaneously with rhuG-CSF at a dose of 125 μg/kg per injection for four days. Mice were gavaged with 20 mg/kg Compound A, Compound B, Compound C or vehicle control once daily for three days beginning on day 1 of the experiment.
as §1

[2] = system: colony-forming cells (CFCs); assay: Mobilization of colony-forming cells (CFC/CFU) to blood and spleen, colony assays; type: in vivo, C57BL/6 mice; settings: for number of CFUs mobilized from the bone marrow to the blood and spleen: Example 7: D 60 mg/kg, E and F 20 mg/kg, + G-CSF vs vehicle + G-CSF, FIG. 13
Experimental: Mobilization of colony-forming cells (CFCs) to the blood and spleen were measured (FIG. 1B).
This was divided into two experiments in which G-CSF was administered for 2 days in one experiment and 4 days in the other (FIG. 2). […] Mobilization of CFCs, phenotypic Lin^−CD41^−Sca1^+Kit^+ HSPCs and Lin^−CD41^− Sca1^+Kit^+CD48^−CD150^+ HSCs were measured in blood and spleens.
Additional HIF-α potentiating agents in the form of PHD inhibitors were tested for their ability to enhance mobilization induced by G-CSF.
as §1
The number of phenotypic hematopoietic stem and progenitor cells remaining in the bone marrow following treatment was measured by flow cytometry using antibodies specific for lineage markers (CD3, CD5, CD45R/B220, F4/80, Gr1, CD41, Ter119), Sca-1, Kit, CD48 and CD150. Similarly, the number of phenotypic hematopoietic stem cells mobilized into the blood and spleen were measured. Colony assays were also performed on blood and spleen to determine the number of colony forming cells per mL of blood and per spleen. […] Levels of significance for differences were calculated using the Student's t-test.
All procedures were approved by the animal experimentation ethics committee of the University of Queensland. […] Plerixafor (AMD3100 octohydrochloride, Tocris Bioscience, Bristol, UK) was injected intraperitoneally as a single 16 mg/kg dose corresponding to 10 mg/kg of AMD3100 base. Tissues were harvested 1 h after Plerixafor administration. […] Control mice were injected with an equivalent volume of saline. At specified time-points, mice were anesthetized with isoflurane before cardiac puncture to harvest blood. Mice were then euthanized by cervical dislocation and BM and bones harvested.
Optimal concentrations of mouse IL-3, IL-6 and soluble kit ligand were added as conditioned media from stably transfected BHK cell lines. Colonies were counted after 7 days culture at 37° C. in a humidified incubator containing 5% CO2.

[3] = system: hematopoietic stem and progenitor cells; assay: Phenotypic HSCs, HSPCs and myeloid progenitors in blood, spleen and bone marrow by flow cytometry; type: in vivo, C57BL/6 mice; settings: for total number of HSCs and progenitors in the BM: Example 7: Compound D 60 mg/kg; for total number of HSCs and progenitors in the BM / total number of myeloid progenitors (LKS−) mobilized: E and F 20 mg/kg, + G-CSF vs vehicle + G-CSF; for total number of myeloid progenitors (LKS−) mobilized: Example 7: D 60 mg/kg
Experimental: as §2, §1
The number of phenotypic hematopoietic stem and progenitor cells remaining in the bone marrow following treatment was measured by flow cytometry using antibodies specific for lineage markers (CD3, CD5, CD45R/B220, F4/80, Gr1, CD41, Ter119), Sca-1, Kit, CD48 and CD150. Similarly, the number of phenotypic hematopoietic stem cells mobilized into the blood and spleen were measured. Colony assays were also performed on blood and spleen to determine the number of colony forming cells per mL of blood and per spleen. All results are presented as mean f standard deviation with n=6 per groups. Levels of significance for differences were calculated using the Student's t-test.
All procedures were approved by the animal experimentation ethics committee of the University of Queensland. All experiments were performed on nine to twelve-week old C57BL/6 male mice or genetically modified mice back-crossed at least 10 times into C57BL/6. Recombinant human G-CSF (Amgen, Thousand Oaks, Calif.) was injected twice daily subcutaneously at 125 μg/kg per injection for up to 4 consecutive days. Plerixafor (AMD3100 octohydrochloride, Tocris Bioscience, Bristol, UK) was injected intraperitoneally as a single 16 mg/kg dose corresponding to 10 mg/kg of AMD3100 base. Tissues were harvested 1 h after Plerixafor administration. […] Compounds H and J were administered at 60 mg/kg and Compound K was administered at 100 mg/kg. Control mice were injected with an equivalent volume of saline. At specified time-points, mice were anesthetized with isoflurane before cardiac puncture to harvest blood. Mice were then euthanized by cervical dislocation and BM and bones harvested.
Following flushing with PBS plus 2% NCS, enriched central BM cells were pelleted at 370×g for 5 minutes at 4° C. and resuspended in CD16/CD32 hybridoma 2.4G2 supernatant to block IgGFc receptors. HSCs were stained with the biotinylated lineage antibody cocktail (CD3, CD5, B220, CD11b, Gr-1, Ter119) and biotinylated CD41 together with streptavidin (SAV)-Pacific Blue, anti-Sca-1-PECY7, anti-KIT-APC, CD48-FITC and CD150-PE as previously described (17). Data were acquired on a CyAn (Dako Cytomation) flow cytometer and analyzed following compensation with single color controls using FlowJo software (Tree Star, Ashland, Oreg.).

[4] = system: colony-forming cells (CFCs); settings: Plerixafor; reference (7); cited from earlier work
CD34+ cells = settings: cited from earlier work
[5] = Example 6: 20 mg/kg + G-CSF vs vehicle + G-CSF, FIG. 11
[6] = Example 6: 20 mg/kg + G-CSF vs vehicle + G-CSF, FIGS. 8A-B
[7] = Example 6: blood and spleen, 20 mg/kg + G-CSF vs vehicle + G-CSF, FIGS. 9A-B
[8] = Example 7: D 60 mg/kg, E and F 20 mg/kg, + G-CSF vs vehicle + G-CSF
[9] = Example 7: D 60 mg/kg, E 20 mg/kg, + G-CSF vs vehicle + G-CSF
[10] = Example 7: 20 mg/kg + G-CSF vs vehicle + G-CSF, FIGS. 12A-B

Molecule: N#Cc1nc(C(=O)NCC(=O)O)c(O)c2ccn(Cc3ccccc3F)c12 [Compound C, {[7-Cyano-1-(2-fluoro-benzyl)-4-hydroxy-1H-pyrrolo[2,3-c]pyridine-5-carbonyl]-amino}-acetic acid]
- increase in spleen weight [1, 5]: approximately 2 fold
- number of white blood cells per mL of blood (white blood cells; [5]): significant increase
- number of colony forming units mobilized to the blood ([2]; Example 6: 20 mg/kg + G-CSF vs vehicle + G-CSF, FIG. 10): significantly increased
- mobilization of myeloid progenitors (LKS−) to the blood ([3]; Example 6: 20 mg/kg + G-CSF vs vehicle + G-CSF): did not significantly alter
- increase in mobilization of myeloid progenitors (LKS−) to the spleen [3, 6]: approximately 3 fold
- increase in number of HSPCs (LSK48+ and LSK) mobilized to the spleen [3, 6]: approximately 2 fold
- increase in number of phenotypic HSCs (LSK48−150+) mobilized to the spleen [3, 6]: approximately 2 fold
- total number of phenotypic HSPCs in the bone marrow ([3]; Example 6: 20 mg/kg once daily 3 days + rhuG-CSF 125 μg/kg twice daily 4 days vs vehicle + G-CSF, FIGS. 6A-B): did not significantly alter
- increase in total number of HSPCs (LSK48+ and LSK) mobilized from the bone marrow [3, 7]: approximately 2 fold
- increase in total number of myeloid progenitors (LKS−) mobilized from the bone marrow [3, 7]: approximately 6 fold
- increase in total number of phenotypic HSCs (LSK48−150+) mobilized from the bone marrow [3, 7]: approximately 2 fold

Molecule: O=C(O)CNC(=O)c1c(O)n(C2CCCCC2)c(=O)n(C2CCCCC2)c1=O [Compound D, [(1,3-Dicyclohexyl-6-hydroxy-2,4-dioxo-1,2,3,4-tetrahydro-pyrimidine-5-carbonyl)-amino]-acetic acid]
- increase in spleen weight [1, 8]: approximately 2 fold
- number of white blood cells per mL of blood (white blood cells; [9]): significant increase
- number of CFUs mobilized from the bone marrow to the blood and spleen [2]: significantly increased
- total number of HSCs and progenitors in the BM [3]: did not significantly alter
- total number of myeloid progenitors (LKS−) mobilized ([3]; FIGS. 12A-B): significantly increased

Molecule: CC(C)c1nn(Cc2ccc(-c3ccc(F)cc3)cc2F)c(=O)c(C(=O)NCC(=O)O)c1O [Compound E, {[2-(3,4′-Difluoro-biphenyl-4-ylmethyl)-5-hydroxy-6-isopropyl-3-oxo-2,3-dihydro-pyridazine-4-carbonyl]-amino}-acetic acid]
- increase in spleen weight [1, 8]: approximately 2 fold
- number of white blood cells per mL of blood (white blood cells; [9]): significant increase
- number of CFUs mobilized from the bone marrow to the blood and spleen [2]: significantly increased
- total number of HSCs (LSK48-150+) mobilized from the bone marrow [3, 10]: significant increase
- total number of HSPCs (LSK48+ and LSK) mobilized from the bone marrow [3, 10]: significant increase
- total number of HSCs and progenitors in the BM [3]: did not significantly alter
- total number of myeloid progenitors (LKS−) mobilized ([3]; FIGS. 12A-B): significant increase

Molecule: c1cc(CN2CCCNCCNCCCNCC2)ccc1CN1CCCNCCNCCCNCC1 [Plerixafor, 1,1′-[1,4-phenylenebis(methylene)]-bis-1,4,8,11-tetra-azacyclotetradecane]
- time of peak mobilization post-injection [4]: 1 h
- patients who failed with G-CSF alone who still fail to mobilize adequately (CD34+ cells; G-CSF and Plerixafor, references (8-9)): 40%
- patients who previously failed to mobilize with G-CSF alone who reach the minimal threshold (CD34+ cells; Plerixafor daily 1 hr prior to aphaeresis from day 4 of G-CSF, references (8-9)): approximately 60%
- mobilization of HSPC to the spleen ([2]; 1 hr following Plerixafor treatment with or without Compound X, FIG. 1D): no significant mobilization
- enhancement of CFC mobilization in response to G-CSF ([2]; Plerixafor 16 mg/kg 1 hour prior harvest + 2 days G-CSF, p<0.005): 10 fold

B1: G-CSF: cytokine granulocyte colony-stimulating factor, the main mobilizing agent used in the clinic; recombinant human G-CSF (Amgen) (protein, UniProt P09919 31-207, looked up)
Granulocyte …: TPLGPASSLPQSFLLKCLEQVRKIQGDGAALQEKLVSECATYKLCHPEELVLLGHSLGIPWAPLSSCPSQALQLAGCLSQLHSGLFLYQGLLQALEGISPELGPTLDTLQLDVADFATTIWQQMEELGMAPALQPTQGAMPAFASAFQRRAGGVLVASHLQSFLEVSYRVLRHLAQP
modifications: filgrastim
- chemotherapy-treated patients who fail to reach the minimal threshold of 2×10^6 CD34+ cells/kg (CD34+ cells; autologous setting, in response to G-CSF, reference (1)): 30-60%
